Measurements taken from patent publication US6958352B2, “Compounds for inhibiting insulin secretion and methods related thereto” (SmithKline Beecham Corporation, priority 2002, dated 2005).
Read-outs that look alike come from different tables or passages of the source.

Biological target: T1, mitochondrial calcium/sodium antiporter (Rattus norvegicus, UniProt Q6AXS0)
T1 sequence (Q6AXS0 1-585): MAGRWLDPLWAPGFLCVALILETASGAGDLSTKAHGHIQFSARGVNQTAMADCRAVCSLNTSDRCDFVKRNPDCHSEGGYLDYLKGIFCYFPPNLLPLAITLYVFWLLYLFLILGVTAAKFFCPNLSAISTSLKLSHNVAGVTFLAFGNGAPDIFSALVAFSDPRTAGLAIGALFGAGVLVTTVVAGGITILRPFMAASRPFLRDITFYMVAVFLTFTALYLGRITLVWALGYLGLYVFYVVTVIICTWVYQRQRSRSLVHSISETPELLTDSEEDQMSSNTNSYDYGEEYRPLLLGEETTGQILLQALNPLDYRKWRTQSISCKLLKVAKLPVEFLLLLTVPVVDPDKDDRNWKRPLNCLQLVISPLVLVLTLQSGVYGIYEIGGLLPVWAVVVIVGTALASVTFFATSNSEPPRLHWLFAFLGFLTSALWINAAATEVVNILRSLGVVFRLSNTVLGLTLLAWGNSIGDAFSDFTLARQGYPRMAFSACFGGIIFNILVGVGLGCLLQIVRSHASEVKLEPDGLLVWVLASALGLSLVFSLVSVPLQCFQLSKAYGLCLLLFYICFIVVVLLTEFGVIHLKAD
Assay: Inhibition of mitochondrial calcium/sodium antiporter activity (NaCl-induced mitochondrial calcium efflux, calcium green 5N fluorescence)
Assay type: cell-based
Settings: digitonin-permeabilized INS-1 cells, 20 mM NaCl
Experimental: INS-1 rat insulinoma cells (see Example 16) were harvested by trypsinization, washed and resuspended at 10×10^6 cells/ml in assay buffer (250 mM sucrose, 10 mM HEPES, 2.5 mM K2HPO4, 5 mM succinate, pH 7.4) containing 0.007% digitonin, 60 μM CaCl2 and 0.05 μM calcium green 5N (Molecular Probes, Inc., Eugene, Oreg.). After a five-minute calcium loading incubation, ruthenium red (1 μM; Sigma, St. Louis, Mo.) was added to block further calcium uptake by mitochondria. Cell suspensions were dispensed into 96-well plates (100 μl per well, 1×10^6 cells per well) and candidate agents (i.e., candidate mitochondrial calcium/sodium antiporter inhibitors) were added to some sets of triplicate wells at concentrations of 1, 10 or 100 μM, while other sets of wells provided appropriate control conditions (e.g., buffer and vehicle controls). Baseline fluorescence measurements were made using a multiwell plate fluorimeter (F-MAX™, Molecular Devices Corp., Sunnyvale, Calif.; or PolarStar™, BMG Labtechnologies, Inc., Durham, N.C.) according to the manufacturer's instructions. Calcium efflux from mitochondria was then induced by adding NaCl to all wells to achieve a final concentration of 20 mM, and the rate of change in fluorescence in each well was monitored […] for two minutes and quantified using software included with the plate reader.

[1] = Table 2, preferred compounds, read-out: IC50 ≦ 10 μM
[2] = Table 3, more preferred compounds, read-out: IC50 ≦ 1 μM

| Structure (SMILES) | IC50 [1] | IC50 [2] | IC50 (IC50 ≦ 1 μM, Table 3, more preferred compounds) | IC50 (IC50 ≦ 10 μM, Table 2, preferred compounds) |
| --- | --- | --- | --- | --- |
| Nc1ccc(Cl)cc1C(SCCNS(=O)(=O)c1ccccc1[N+](=O)[O-])c1ccccc1Cl (stereo not shown) [Compound 18c] | ≤ 10 µM | ≤ 1 µM | – | – |
| Nc1ccc(Cl)cc1C(SCC(=O)NCCc1ccccc1)c1ccccc1Cl (stereo not shown) [Compound 13c] | ≤ 10 µM | ≤ 1 µM | – | – |
| O=C(NCCc1ccccc1)C(c1cccc(Cl)c1)c1ccccc1[N+](=O)[O-] (stereo not shown) [Compound 26b] | ≤ 10 µM | ≤ 1 µM | – | – |
| Nc1ccc(Cl)cc1C(SCCNC(=O)c1ccc(Cl)cc1Cl)c1ccccc1Cl (stereo not shown) [Compound 16c] | ≤ 10 µM | – | – | – |
| Nc1ccc(Cl)cc1C(SCC(=O)NCCc1ccc(O)cc1)c1ccccc1Cl (stereo not shown) [Compound 13s] | ≤ 10 µM | ≤ 1 µM | – | – |
| Cc1noc(CSC(c2cccs2)c2cc(Cl)ccc2N)n1 (stereo not shown) [Compound 14g] | ≤ 10 µM | ≤ 1 µM | – | – |
| COC(=O)CSC(c1cc(Cl)ccc1N)c1sccc1C (stereo not shown) [Compound 11c] | ≤ 10 µM | – | – | – |
| Nc1ccc(Cl)cc1C(SCCNC(=O)Nc1ccccc1OC(F)(F)F)c1ccccc1Cl (stereo not shown) [Compound 17b] | ≤ 10 µM | ≤ 1 µM | – | – |
| Nc1ccc(Cl)cc1C(SCCNC(=O)c1ccccn1)c1ccccc1Cl (stereo not shown) [Compound 16m] | ≤ 10 µM | ≤ 1 µM | – | – |
| COC(=O)CSC(c1ccccc1)c1cc([N+](=O)[O-])ccc1N (stereo not shown) [Compound 11t] | ≤ 10 µM | – | – | – |
| CC(C)C(=O)NCCSC(c1cc(Cl)ccc1N)c1ccccc1Cl (stereo not shown) [Compound 16j] | ≤ 10 µM | ≤ 1 µM | – | – |
| COC(=O)CSC(c1ccccc1C)c1ccccc1NC(=O)c1ccccc1 (stereo not shown) [Compound 34c] | ≤ 10 µM | – | – | – |
| Nc1ccc(Cl)cc1C(SCC(=O)NC1CCCCC1)c1ccccc1Cl (stereo not shown) [Compound 13h] | ≤ 10 µM | ≤ 1 µM | – | – |
| CNC(=O)CSCC(c1cc(Cl)ccc1N)c1ccccc1F (stereo not shown) [Compound 21f] | ≤ 10 µM | ≤ 1 µM | – | – |
| CNC(=O)CSCC(c1ccccc1)c1cc(Cl)ccc1N (stereo not shown) [Compound 21h] | ≤ 10 µM | ≤ 1 µM | – | – |
| COC(=O)CSC(c1cc(C)ccc1C)c1cc(Cl)ccc1N (stereo not shown) [Compound 11m] | ≤ 10 µM | – | – | – |
| Nc1ccc(Cl)cc1C(SCCNC(=O)c1cccc(Br)c1)c1ccccc1Cl (stereo not shown) [Compound 16e] | ≤ 10 µM | ≤ 1 µM | – | – |
| Nc1ccc(Cl)cc1C(SCCNS(=O)(=O)c1ccccc1)c1ccccc1Cl (stereo not shown) [Compound 18b] | ≤ 10 µM | ≤ 1 µM | – | – |
| COc1ccccc1C(=O)NCCSC(c1cc(Cl)ccc1N)C1CCCCC1 (stereo not shown) [Compound 16q] | – | ≤ 1 µM | – | – |
| COC(=O)CSC(c1nccs1)c1cc(Cl)ccc1N (stereo not shown) [Compound 11u] | ≤ 10 µM | – | – | – |
| Nc1ccc(Cl)cc1C(SCCNC(=O)Nc1cccc(Cl)c1Cl)c1ccccc1Cl (stereo not shown) [Compound 17e] | ≤ 10 µM | – | – | – |
| Nc1ccc(Cl)cc1C(SCC(=O)NCC1CCCCC1)c1ccccc1Cl (stereo not shown) [Compound 13n] | ≤ 10 µM | ≤ 1 µM | – | – |

| Structure (SMILES) | IC50 [1] | IC50 [2] | IC50 (IC50 ≦ 1 μM, Table 3, more preferred compounds) | IC50 (IC50 ≦ 10 μM, Table 2, preferred compounds) |
| --- | --- | --- | --- | --- |
| COc1cc(NC(=S)NCCSC(c2cc(Cl)ccc2N)C2CCCCC2)cc(OC)c1OC (stereo not shown) [Compound 17i] | – | ≤ 1 µM | – | – |
| COC(=O)CSC(CCCOCc1ccccc1)c1cc(Cl)ccc1N (stereo not shown) [Compound 11an] | ≤ 10 µM | – | – | – |
| Nc1ccc(Cl)cc1C(SCC(=O)NCc1ccccc1)c1ccccc1Cl (stereo not shown) [Compound 13f] | ≤ 10 µM | ≤ 1 µM | – | – |
| O=[N+]([O-])c1ccccc1C(CNCCc1ccccc1)c1cccc(Cl)c1 (stereo not shown) [Compound 27b] | – | – | ≤ 1 µM | ≤ 10 µM |
| COc1ccc(C(=O)NCCSC(c2cc(Cl)ccc2N)C2CCCCC2)cc1OC (stereo not shown) [Compound 16n] | – | ≤ 1 µM | – | – |
| COC(=O)CSC(c1cc(Cl)ccc1N)c1cccc(C)c1C (stereo not shown) [Compound 11k] | ≤ 10 µM | – | – | – |
| COC(=O)CSC(c1ccc(C)cc1C)c1cc(Cl)ccc1N (stereo not shown) [Compound 11w] | ≤ 10 µM | – | – | – |
| CNC(=O)CSCC(c1cc(Br)ccc1N)c1ccccc1F (stereo not shown) [Compound 21g] | ≤ 10 µM | – | – | – |
| Nc1ccc(Cl)cc1C(SCCNC(=O)c1cccnc1)C1CCCCC1 (stereo not shown) [Compound 16t] | – | ≤ 1 µM | – | – |
| CNC(=O)CSC(c1cc(Cl)ccc1N)c1ccccc1Cl (stereo not shown) [Compound 13a] | ≤ 10 µM | – | – | – |
| Nc1ccc(Cl)cc1C(SCC(=O)NCCO)c1ccccc1Cl (stereo not shown) [Compound 13e] | ≤ 10 µM | – | – | – |
| COC(=O)CSC(c1cc(C)cc(C)c1)c1cc(Cl)ccc1N (stereo not shown) [Compound 11d] | ≤ 10 µM | ≤ 1 µM | – | – |
| COc1ccc(C(=O)NCCSC(c2cc(Cl)ccc2N)C2CCCCC2)cc1 (stereo not shown) [Compound 16s] | – | ≤ 1 µM | – | – |
| COc1ccc(NC(=O)NCCSC(c2cc(Cl)ccc2N)c2ccccc2Cl)c(OC)c1 (stereo not shown) [Compound 17f] | ≤ 10 µM | ≤ 1 µM | – | – |
| Cc1noc(CSC(c2cc(Cl)ccc2N)c2ccccc2Cl)n1 (stereo not shown) [Compound 14b] | ≤ 10 µM | ≤ 1 µM | – | – |
| Nc1ccc(Cl)cc1C(SCC(=O)NCCCn1ccnc1)c1ccccc1Cl (stereo not shown) [Compound 13p] | ≤ 10 µM | ≤ 1 µM | – | – |
| COC(=O)CSC(c1ccccc1N)c1ccccc1Cl (stereo not shown) [Compound 11r] | ≤ 10 µM | – | – | – |
| COC(=O)CSC(c1cc(Cl)ccc1NC(=O)C(F)(F)F)c1c(C)cccc1C (stereo not shown) [Compound 11ba] | ≤ 10 µM | ≤ 1 µM | – | – |
| Nc1ccc(Cl)cc1C(SCc1nc(-c2ccc(F)cc2)no1)c1ccccc1Cl (stereo not shown) [Compound 14a] | ≤ 10 µM | – | – | – |
| COC(=O)C(c1cccc(Cl)c1)c1ccccc1[N+](=O)[O-] (stereo not shown) [Compound 25a] | ≤ 10 µM | – | – | – |
| COc1ccc(C(=O)NCCSC(CC(C)C)c2cc(Cl)ccc2N)cc1OC (stereo not shown) [Compound 16aa] | – | ≤ 1 µM | – | – |
| COc1cc(C(=O)N2CCC(CSC(c3cc(F)ccc3N)C3CCCCC3)CC2)cc(OC)c1OC (stereo not shown) [Compound 41b] | – | ≤ 1 µM | – | – |

| Structure (SMILES) | IC50 [1] | IC50 [2] | IC50 (IC50 ≦ 1 μM, Table 3, more preferred compounds) | IC50 (IC50 ≦ 10 μM, Table 2, preferred compounds) |
| --- | --- | --- | --- | --- |
| COc1cc(C(=O)NCCSC(c2cc(Cl)ccc2N)C(C)C)cc(OC)c1OC (stereo not shown) [Compound 16ab] | – | ≤ 1 µM | – | – |
| COC(=O)CSCC(c1ccccc1)c1cc(Cl)ccc1N (stereo not shown) [Compound 20d] | ≤ 10 µM | ≤ 1 µM | – | – |
| Nc1ccc(Cl)cc1C(SCCNC(=O)c1ccc([N+](=O)[O-])cc1)c1ccccc1Cl (stereo not shown) [Compound 16g] | ≤ 10 µM | ≤ 1 µM | – | – |
| NCCOCCOCCNC(=O)CSC(c1cc(Cl)ccc1N)c1ccccc1Cl (stereo not shown) [Compound 13v] | ≤ 10 µM | ≤ 1 µM | – | – |
| COc1ccc(S(=O)(=O)NCCSC(c2cc(F)ccc2N)C2CCCCC2)cc1OC (stereo not shown) [Compound 18g] | – | ≤ 1 µM | – | – |
| Nc1ccc(Cl)cc1C(SCCNC(=O)c1cccnc1)c1ccccc1Cl (stereo not shown) [Compound 16k] | ≤ 10 µM | ≤ 1 µM | – | – |
| Nc1ccc(Cl)cc1C(SCCNC(=O)c1ccncc1)C1CCCCC1 (stereo not shown) [Compound 16u] | – | ≤ 1 µM | – | – |
| COCCCNC(=O)CSC(c1cc(Cl)ccc1N)c1ccccc1Cl (stereo not shown) [Compound 13m] | ≤ 10 µM | ≤ 1 µM | – | – |
| COC(=O)CSC(c1ccc(C)c(C)c1)c1cc(Cl)ccc1N (stereo not shown) [Compound 11l] | ≤ 10 µM | – | – | – |
| COC1CCC(C(=O)NCCSC(c2cc(Cl)ccc2N)c2ccccc2Cl)CC1 (stereo not shown) [Compound 16f] | ≤ 10 µM | ≤ 1 µM | – | – |
| CNC(=O)C(c1cccc(Cl)c1)c1ccccc1[N+](=O)[O-] (stereo not shown) [Compound 26a] | ≤ 10 µM | – | – | – |
| COc1ccc(C(=O)NCCSC(c2cc(F)ccc2N)C2CCCCC2)cc1OC (stereo not shown) [Compound 16ad] | – | ≤ 1 µM | – | – |
| Nc1ccc(Cl)cc1C(c1ccccc1Cl)[S+]([O-])CC(=O)NCC(c1ccccc1)c1ccccc1 (stereo not shown) [Compound 38c] | ≤ 10 µM | ≤ 1 µM | – | – |
| NC(=O)CSCC(c1cc(Cl)ccc1N)c1ccccc1Cl (stereo not shown) [Compound 21a] | ≤ 10 µM | – | – | – |
| Nc1ccc(Cl)cc1C(SCC(=O)N1CCN(c2ccccc2)CC1)c1ccccc1Cl (stereo not shown) [Compound 13j] | ≤ 10 µM | ≤ 1 µM | – | – |
| COc1cc(C(=O)NCCSC(c2cc(Cl)ccc2N)C2CCCCC2)cc(OC)c1O (stereo not shown) [Compound 16p] | ≤ 10 µM | – | – | – |
| CN(C)C(=O)CSC(c1cc(Cl)ccc1N)c1ccccc1Cl (stereo not shown) [Compound 13b] | ≤ 10 µM | ≤ 1 µM | – | – |
| COc1cc(NC(=O)NCCSC(c2cc(Cl)ccc2N)C2CCCCC2)cc(OC)c1OC (stereo not shown) [Compound 17h] | – | ≤ 1 µM | – | – |
| CCOC(=O)C(c1ccccc1C)c1ccccc1[N+](=O)[O-] (stereo not shown) [Compound 25b] | ≤ 10 µM | ≤ 1 µM | – | – |
| Cc1noc(C[S+]([O-])CC(c2cc(Cl)ccc2N)c2ccccc2Cl)n1 (stereo not shown) [Compound 38a] | ≤ 10 µM | – | – | – |
| CCCNC(=O)CSC(c1cc(Cl)ccc1N)c1ccccc1Cl (stereo not shown) [Compound 13k] | ≤ 10 µM | ≤ 1 µM | – | – |
